Measured values from patent publication US6127519A, “Calcitonin derivatives” (Tsumura & Co., priority 1990, dated 2000).
Numbered stars: 1 amine (or outer) side, 2 acyl side, 3 side chain; on linkers, the order of the positions; unused ones are H or OH. Bridge positions count the residues as written; N and C are the ends. Square brackets hold non-standard residues; d marks the D form. Ends that are not written are not given here. Peptide text beside a SMILES is read from it. Suc = O=C(CCC(=O)[*:2])[*:1]; Orn = NCCC[C@H](N)C(=O)O

Tested on: calcium concentration in the serum
Test: Test 1: reduction of calcium level in serum after tail vein administration to rats
Type: in vivo, rats of the Wistar strain
Details: 1 ml/kg tail vein, female Wistar rats
In short: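 Female Wistar rats, six weeks old, were assigned in groups of 4 and given the test peptides through the tail vein at 1 ml/kg. The peptides were dissolved in 1% aqueous sodium acetate (pH 4,0) containing 0.1% BSA. Blood (0.3 ml) was drawn from the neck vein immediately before dosing and at set times afterward. Serum was separated by centrifuging at 3500 rpm for 20 minutes. Calcium was measured on a TBA-380 analyzer with a Wako o-cpc kit, and the percentage reduction in serum calcium was calculated.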

[1] = concentration 83 ng/ml, 0 hour (just before administration)
[2] = concentration 83 ng/ml, 2 hours
[3] = concentration 83 ng/ml, 4 hours
[4] = concentration 83 ng/ml, 6 hours
[5] = concentration 830 ng/ml, 0 hour (just before administration)
[6] = concentration 830 ng/ml, 1 hour
[7] = concentration 830 ng/ml, 2 hours
[8] = concentration 830 ng/ml, 4 hours
[9] = concentration 830 ng/ml, 6 hours

CC[C@H](C)[C@H](NC(=O)[C@H](C)NC(=O)[C@@H](NC(=O)[C@H](CCC(N)=O)NC(=O)[C@@H]1CCCN1C(=O)[C@H](Cc1ccc(O)cc1)NC(=O)[C@@H](NC(=O)[C@H](CCC(N)=O)NC(=O)[C@H](CC(C)C)NC(=O)[C@H](CCCCN)NC(=O)[C@H](Cc1c[nH]cn1)NC(=O)[C@H](CC(C)C)NC(=O)[C@H](CCC(=O)O)NC(=O)[C@H](CCC(N)=O)NC(=O)[C@H](CO)NC(=O)[C@H](CC(C)C)NC(=O)[C@H](CCCCN)NC(=O)CNC(=O)[C@H](CC(C)C)NC(=O)[C@H](CC(C)C)NC(=O)[C@@H]1CC(=O)NCCCC[C@H](N)C(=O)N[C@@H](CC(N)=O)C(=O)N[C@@H](CC(C)C)C(=O)N[C@@H](CO)C(=O)N[C@@H]([C@@H](C)O)C(=O)N1)[C@@H](C)O)[C@@H](C)O)C(=O)NCC(=O)N[C@H](C(=O)NCC(=O)N[C@@H](C)C(=O)N1CCC[C@H]1C(N)=O)C(C)C [Peptide No. 28] (H-KNLSTDLLGKLSQELHKLQTYPQTAIGVGAP-NH2; lactam 1-6)
Serum calcium level as percent of pre-dose baseline [1]: 100.0% | Serum calcium level as percent of pre-dose baseline (concentration 83 ng/ml, 1 hour): 83.7% | Serum calcium level as percent of pre-dose baseline [2]: 87.7% | Serum calcium level as percent of pre-dose baseline [3]: 82.6% | Serum calcium level as percent of pre-dose baseline [4]: 80.8% | Serum calcium level as percent of pre-dose baseline [5]: 100.0% | Serum calcium level as percent of pre-dose baseline [6]: 73.5% | Serum calcium level as percent of pre-dose baseline [7]: 87.2% | Serum calcium level as percent of pre-dose baseline [8]: 83.8% | Serum calcium level as percent of pre-dose baseline [9]: 81.6%

CC[C@H](C)[C@H](NC(=O)[C@H](C)NC(=O)[C@@H](NC(=O)[C@H](CCC(N)=O)NC(=O)[C@@H]1CCCN1C(=O)[C@H](Cc1ccc(O)cc1)NC(=O)[C@@H](NC(=O)[C@H](CCC(N)=O)NC(=O)[C@H](CC(C)C)NC(=O)[C@H](CCCCN)NC(=O)[C@H](Cc1c[nH]cn1)NC(=O)[C@H](CC(C)C)NC(=O)[C@H](CCC(=O)O)NC(=O)[C@H](CCC(N)=O)NC(=O)[C@H](CO)NC(=O)[C@H](CC(C)C)NC(=O)[C@H](CCCCN)NC(=O)CNC(=O)[C@H](CC(C)C)NC(=O)[C@H](CC(C)C)NC(=O)[C@@H]1CCCNC(=O)CC[C@H](N)C(=O)N[C@@H](CC(N)=O)C(=O)N[C@@H](CC(C)C)C(=O)N[C@@H](CO)C(=O)N[C@@H]([C@@H](C)O)C(=O)N1)[C@@H](C)O)[C@@H](C)O)C(=O)NCC(=O)N[C@H](C(=O)NCC(=O)N[C@@H](C)C(=O)N1CCC[C@H]1C(N)=O)C(C)C [Peptide No. 29] (H-ENLST[Orn]LLGKLSQELHKLQTYPQTAIGVGAP-NH2; lactam 1-6)
Serum calcium level as percent of pre-dose baseline [1]: 100.0% | Serum calcium level as percent of pre-dose baseline (concentration 83 ng/ml, 1 hour): 84.6% | Serum calcium level as percent of pre-dose baseline [2]: 91.7% | Serum calcium level as percent of pre-dose baseline [3]: 83.2% | Serum calcium level as percent of pre-dose baseline [4]: 76.6% | Serum calcium level as percent of pre-dose baseline [5]: 100.0% | Serum calcium level as percent of pre-dose baseline [6]: 75.0% | Serum calcium level as percent of pre-dose baseline [7]: 84.7% | Serum calcium level as percent of pre-dose baseline [8]: 78.0% | Serum calcium level as percent of pre-dose baseline [9]: 73.1%

CC[C@H](C)[C@H](NC(=O)[C@H](C)NC(=O)[C@@H](NC(=O)[C@H](CCC(N)=O)NC(=O)[C@@H]1CCCN1C(=O)[C@H](Cc1ccc(O)cc1)NC(=O)[C@@H](NC(=O)[C@H](CCC(N)=O)NC(=O)[C@H](CC(C)C)NC(=O)[C@H](CCCCN)NC(=O)[C@H](Cc1c[nH]cn1)NC(=O)[C@H](CC(C)C)NC(=O)[C@H](CCC(=O)O)NC(=O)[C@H](CCC(N)=O)NC(=O)[C@H](CO)NC(=O)[C@H](CC(C)C)NC(=O)[C@H](CCCCN)NC(=O)CNC(=O)[C@H](CC(C)C)NC(=O)[C@H](CC(C)C)NC(=O)[C@@H]1CCC(=O)NCCC[C@H](N)C(=O)N[C@@H](CC(N)=O)C(=O)N[C@@H](CC(C)C)C(=O)N[C@@H](CO)C(=O)N[C@@H]([C@@H](C)O)C(=O)N1)[C@@H](C)O)[C@@H](C)O)C(=O)NCC(=O)N[C@H](C(=O)NCC(=O)N[C@@H](C)C(=O)N1CCC[C@H]1C(N)=O)C(C)C [Peptide No. 30] (H-[Orn]NLSTELLGKLSQELHKLQTYPQTAIGVGAP-NH2; lactam 1-6)
Serum calcium level as percent of pre-dose baseline [1]: 100.0% | Serum calcium level as percent of pre-dose baseline (concentration 83 ng/ml, 1 hour): 77.2% | Serum calcium level as percent of pre-dose baseline [2]: 80.7% | Serum calcium level as percent of pre-dose baseline [3]: 83.2% | Serum calcium level as percent of pre-dose baseline [4]: 77.7% | Serum calcium level as percent of pre-dose baseline [5]: 100.0% | Serum calcium level as percent of pre-dose baseline [6]: 74.0% | Serum calcium level as percent of pre-dose baseline [7]: 63.8% | Serum calcium level as percent of pre-dose baseline [8]: 65.4% | Serum calcium level as percent of pre-dose baseline [9]: 73.9%

CC[C@H](C)[C@H](NC(=O)[C@H](C)NC(=O)[C@@H](NC(=O)[C@H](CCC(N)=O)NC(=O)[C@@H]1CCCN1C(=O)[C@H](Cc1ccc(O)cc1)NC(=O)[C@@H](NC(=O)[C@H](Cc1c[nH]cn1)NC(=O)[C@H](Cc1ccccc1)NC(=O)[C@H](CCCCN)NC(=O)[C@H](CC(N)=O)NC(=O)[C@H](CC(C)C)NC(=O)[C@H](CC(=O)O)NC(=O)[C@H](CCC(N)=O)NC(=O)[C@H](CO)NC(=O)[C@H](CC(C)C)NC(=O)[C@H](CCCCN)NC(=O)CNC(=O)[C@H](CC(C)C)NC(=O)[C@H](CC(C)C)NC(=O)[C@@H]1CCCCNC(=O)C[C@H](N)C(=O)N[C@@H](CC(N)=O)C(=O)N[C@@H](CC(C)C)C(=O)N[C@@H](CO)C(=O)N[C@@H]([C@@H](C)O)C(=O)N1)[C@@H](C)O)[C@@H](C)O)C(=O)NCC(=O)N[C@H](C(=O)NCC(=O)N[C@@H](C)C(=O)N1CCC[C@H]1C(N)=O)C(C)C [Peptide No. 31] (H-DNLSTKLLGKLSQDLNKFHTYPQTAIGVGAP-NH2; lactam 1-6)
Serum calcium level as percent of pre-dose baseline [1]: 100.0% | Serum calcium level as percent of pre-dose baseline (concentration 83 ng/ml, 1 hour): 79.1% | Serum calcium level as percent of pre-dose baseline [2]: 72.7% | Serum calcium level as percent of pre-dose baseline [3]: 77.5% | Serum calcium level as percent of pre-dose baseline [4]: 74.3% | Serum calcium level as percent of pre-dose baseline [5]: 100.0% | Serum calcium level as percent of pre-dose baseline [6]: 74.3% | Serum calcium level as percent of pre-dose baseline [7]: 65.6% | Serum calcium level as percent of pre-dose baseline [8]: 57.3% | Serum calcium level as percent of pre-dose baseline [9]: 49.6%

CC[C@H](C)[C@H](NC(=O)[C@H](C)NC(=O)[C@@H](NC(=O)[C@H](CCC(N)=O)NC(=O)[C@@H]1CCCN1C(=O)[C@H](Cc1ccc(O)cc1)NC(=O)[C@@H](NC(=O)[C@H](Cc1c[nH]cn1)NC(=O)[C@H](Cc1ccccc1)NC(=O)[C@H](CCCCN)NC(=O)[C@H](CC(N)=O)NC(=O)[C@H](CC(C)C)NC(=O)[C@H](CC(=O)O)NC(=O)[C@H](CCC(N)=O)NC(=O)[C@H](CO)NC(=O)[C@H](CC(C)C)NC(=O)[C@H](CCCCN)NC(=O)CNC(=O)[C@H](CC(C)C)NC(=O)[C@H](CC(C)C)NC(=O)[C@@H]1CCCCNC(=O)CCC(=O)N[C@@H](CC(N)=O)C(=O)N[C@@H](CC(C)C)C(=O)N[C@@H](CO)C(=O)N[C@@H]([C@@H](C)O)C(=O)N1)[C@@H](C)O)[C@@H](C)O)C(=O)NCC(=O)N[C@H](C(=O)NCC(=O)N[C@@H](C)C(=O)N1CCC[C@H]1C(N)=O)C(C)C [Peptide No. 32] (NLSTKLLGKLSQDLNKFHTYPQTAIGVGAP-NH2; linker N-5 via Suc)
Serum calcium level as percent of pre-dose baseline [1]: 100.0% | Serum calcium level as percent of pre-dose baseline (concentration 83 ng/ml, 1 hour): 82.4% | Serum calcium level as percent of pre-dose baseline [2]: 76.1% | Serum calcium level as percent of pre-dose baseline [3]: 79.1% | Serum calcium level as percent of pre-dose baseline [4]: 84.1% | Serum calcium level as percent of pre-dose baseline [5]: 100.0% | Serum calcium level as percent of pre-dose baseline [6]: 84.5% | Serum calcium level as percent of pre-dose baseline [7]: 73.6% | Serum calcium level as percent of pre-dose baseline [8]: 65.9% | Serum calcium level as percent of pre-dose baseline [9]: 64.2%

CC[C@H](C)[C@H](NC(=O)[C@H](C)NC(=O)[C@@H](NC(=O)[C@H](CCC(N)=O)NC(=O)[C@@H]1CCCN1C(=O)[C@H](Cc1ccc(O)cc1)NC(=O)[C@@H](NC(=O)[C@H](Cc1c[nH]cn1)NC(=O)[C@H](Cc1ccccc1)NC(=O)[C@H](CCCCN)NC(=O)[C@H](CC(N)=O)NC(=O)[C@H](CC(C)C)NC(=O)[C@H](CC(=O)O)NC(=O)[C@H](CCC(N)=O)NC(=O)[C@@H](NC(=O)[C@H](CC(C)C)NC(=O)[C@H](CCCCN)NC(=O)CNC(=O)[C@H](CC(C)C)NC(=O)[C@H](CC(C)C)NC(=O)[C@@H]1CCCCNC(=O)CCC(=O)N[C@@H](CC(N)=O)C(=O)N[C@@H](CC(C)C)C(=O)N[C@@H](CO)C(=O)N[C@@H]([C@@H](C)O)C(=O)N1)[C@@H](C)O)[C@@H](C)O)[C@@H](C)O)C(=O)NCC(=O)N[C@H](C(=O)NCC(=O)N[C@@H](C)C(=O)N1CCC[C@H]1C(N)=O)C(C)C [Peptide No. 33] (NLSTKLLGKLTQDLNKFHTYPQTAIGVGAP-NH2; linker N-5 via Suc)
Serum calcium level as percent of pre-dose baseline [1]: 100.0% | Serum calcium level as percent of pre-dose baseline (concentration 83 ng/ml, 1 hour): 78.2% | Serum calcium level as percent of pre-dose baseline [2]: 70.0% | Serum calcium level as percent of pre-dose baseline [3]: 92.4% | Serum calcium level as percent of pre-dose baseline [4]: 86.0% | Serum calcium level as percent of pre-dose baseline [5]: 100.0% | Serum calcium level as percent of pre-dose baseline [6]: 80.8% | Serum calcium level as percent of pre-dose baseline [7]: 71.8% | Serum calcium level as percent of pre-dose baseline [8]: 63.5% | Serum calcium level as percent of pre-dose baseline [9]: 55.1%

AGNLSTAMLGKLSQELHKGQTYPQTAIGVGAP-NH2 [Peptide No. 17]
Serum calcium level as percent of pre-dose baseline (concentration 166 ng/ml, 0 hour (just before administration)): 100.0% | Serum calcium level as percent of pre-dose baseline (concentration 166 ng/ml, 1 hour): 77.6% | Serum calcium level as percent of pre-dose baseline (concentration 166 ng/ml, 2 hours): 71.5% | Serum calcium level as percent of pre-dose baseline (concentration 166 ng/ml, 4 hours): 79.7% | Serum calcium level as percent of pre-dose baseline (concentration 166 ng/ml, 6 hours): 83.2%
